# From US8138175B2, “Heterocyclyl compounds” (Hoffmann-La Roche Inc., priority 2008, dated 2012)
# Biological target: T1, human chemokine receptor 2 isoform B (Homo sapiens, UniProt P41597)
# T1 construct: host or cells: CHOK1-CCR2B-A5 (CHO-K1) cells
# T1 sequence (P41597 1-360 isoform P41597-2): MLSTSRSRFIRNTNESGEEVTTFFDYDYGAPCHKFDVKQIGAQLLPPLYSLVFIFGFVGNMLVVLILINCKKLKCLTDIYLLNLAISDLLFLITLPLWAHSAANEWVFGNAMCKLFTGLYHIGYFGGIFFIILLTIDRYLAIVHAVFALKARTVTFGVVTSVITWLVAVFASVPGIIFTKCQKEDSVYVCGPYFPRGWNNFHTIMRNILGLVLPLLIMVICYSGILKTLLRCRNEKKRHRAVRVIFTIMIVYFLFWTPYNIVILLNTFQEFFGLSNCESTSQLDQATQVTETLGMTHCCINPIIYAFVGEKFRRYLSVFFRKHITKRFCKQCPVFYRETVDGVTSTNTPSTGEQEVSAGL
# Test: Calcium mobilization assay
# Assay type: cell-based
# Conditions: Ca mobilization assay for CCR2; CHOK1-CCR2B-A5 cells; antagonist activity against 20 nM MCP-1; FLIPR, Fluo-4
# Procedure: Calcium Mobilization Assay
# CHOK1-CCR2B-A5 cells (from Euroscreen) stably overexpressing the human chemokine receptor 2 isoform B were cultured in Nutrient Hams F12 medium supplemented with 5% FBS, 100 U/ml penicillin, 100 μg/ml streptomycin, 400 μg/ml G418 and 5 μg/ml puromycin.
# For the assay cells were grown overnight in 384-well black clear flat bottom polystyrene plates (Costar) at 37° C. at 5% CO2. After washing with DMEM, 20 mM Hepes, 2.5 mM probenecid, 0.1% BSA (DMEM assay buffer) cells were loaded with 4 μM Fluo-4 in the same DMEM assay buffer for 2 hours at 30° C. Excess dye was removed and cells were washed with DMEM assay buffer. 384-well compound plates were prepared with DMEM assay buffer/0.5% dimethyl sulfoxide with or without various concentrations of test compounds. Usually compounds were tested for agonist and antagonist activity.
# Test compounds were added to the assay plate and agonist activity was monitored as fluorescence for 80 seconds with a FLIPR (488 nm excitation; 510-570 nm emission; Molecular Devices). After 20-30 min. of incubation at 30° C., 20 nM MCP-1 (R&D; Roche) was added and fluorescence was monitored again for 80 seconds. Increases in intracellular calcium are reported as maximum fluorescence after agonist exposure minus basal fluorescence before exposure. Antagonist activity is indicated as inhibitor concentration required for 50% inhibition of specific calcium increases.
row,Compound,IC50
1,"C[C@H]1C(=O)N(CCCN2CCC3(CC3)[C@H](O)C2)CCN1c1ccc(Cl)c(C(F)(F)F)c1 [Example 76, (S)-4-(4-Chloro-3-trifluoromethyl-phenyl)-1-[3-((S)-4-hydroxy-6-aza-spiro[2.5]oct-6-yl)-propyl]-3-methyl-piperazin-2-one]",7 nM
2,"COC(=O)[C@H](CCN1CCC2(CC2)[C@H](O)C1)N1CCN(c2ccc(OC(F)(F)F)cc2)CCC1=O [Example 11, (S)-4-((S)-4-Hydroxy-6-aza-spiro[2.5]oct-6-yl)-2-[7-oxo-4-(4-trifluoromethoxy-phenyl)-[1,4]diazepan-1-yl]-butyric acid methyl ester]",400 nM
3,"COC(=O)C(CCCN1CCC(C)(O)CC1)N1CCN(c2cccc(C(F)(F)F)c2)CCC1=O (racemic) [Example 29, (rac)-5-(4-Hydroxy-4-methyl-piperidin-1-yl)-2-[7-oxo-4-(3-trifluoromethyl-phenyl)-[1,4]diazepan-1-yl]-pentanoic acid methyl ester]",640 nM
4,"O=C1CCN(c2cccc(C(F)(F)F)c2)CCN1CCCN1CCC(O)(c2ccccc2)CC1 [Example 34, 4-[3-(4-Hydroxy-4-phenyl-piperidin-1-yl)-propyl]-1-(3-trifluoromethyl-phenyl)-[1,4]diazepan-5-one]",930 nM
5,"COC(=O)[C@H](CCN1CCC2(CC2)[C@H](O)C1)N1CCN(c2cccc(Cl)c2)CCC1=O [Example 3, (S)-2-[4-(3-Chloro-phenyl)-7-oxo-[1,4]diazepan-1-yl]-4-((S)-4-hydroxy-6-aza-spiro[2.5]oct-6-yl)-butyric acid methyl ester]",130 nM
6,"C[C@H]1C(=O)N(CCCN2CCCCC2)CCN1c1cccc(C(F)(F)F)c1 [Example 52, (S)-3-Methyl-1-(3-piperidin-1-yl-propyl)-4-(3-trifluoromethyl-phenyl)-piperazin-2-one]",130 nM
7,"CC1C(=O)N(CCCN2CCCCC2)CCN1c1cccc(OC(F)(F)F)c1 (stereo not shown) [Example 41, 3-Methyl-1-(3-piperidin-1-yl-propyl)-4-(3-trifluoromethoxy-phenyl)-piperazin-2-one]",580 nM
8,"CC1C(=O)N(C(CCN2CCC3(CC3)[C@H](O)C2)C(=O)O)CCN1c1cccc(OC(F)(F)F)c1 (stereo partly drawn) [Example 48, 4-((S)-4-Hydroxy-6-aza-spiro[2.5]oct-6-yl)-2-[3-methyl-2-oxo-4-(3-trifluoromethoxy-phenyl)-piperazin-1-yl]-butyric acid]",30 nM
9,"CC1C(=O)N(CC2CCCN(C)C2)CCN1c1cccc(C(F)(F)F)c1 (stereo not shown) [Example 58, 3-Methyl-1-(1-methyl-piperidin-3-ylmethyl)-4-(3-trifluoromethyl-phenyl)-piperazin-2-one]",680 nM
10,"O=C1CCN(c2cccc(C(F)(F)F)c2)CCN1C(CO)CCCN1CCC2(CC2)[C@H](O)C1 (stereo partly drawn) [Example 27, 4-[(R,S)-4-((S)-4-Hydroxy-6-aza-spiro[2.5]oct-6-yl)-1-hydroxymethyl-butyl]-1-(3-trifluoromethyl-phenyl)-[1,4]diazepan-5-one]",70 nM
11,"CC1C(=O)N(C(CCN2CCC3(CC3)[C@H](O)C2)C(=O)N(C)C)CCN1c1cccc(OC(F)(F)F)c1 (stereo partly drawn) [Example 50, 4-((S)-4-Hydroxy-6-aza-spiro[2.5]oct-6-yl)-N,N-dimethyl-2-[3-methyl-2-oxo-4-(3-trifluoromethoxy-phenyl)-piperazin-1-yl]-butyramide]",30 nM
12,"C[C@H]1C(=O)N(C[C@H](O)CN2CCC3(CC3)[C@H](O)C2)CCN1c1ccc(Cl)c(Cl)c1 [Example 101, (S)-4-(3,4-dichloro-phenyl)-1-[(R)-2-hydroxy-3-((S)-4-hydroxy-6-aza-spiro[2.5]oct-6-yl)-propyl]-3-methyl-piperazin-2-one]",73 nM
13,"CC1C(=O)N(CCCN2CCC3(CC3)[C@H](O)C2)CCN1c1cccc(OC(F)(F)F)c1 (stereo partly drawn) [Example 44, 1-[3-((S)-4-Hydroxy-6-aza-spiro[2.5]oct-6-yl)-propyl]-3-methyl-4-(3-trifluoromethoxy-phenyl)-piperazin-2-one]",20 nM
14,"COC(=O)C(CCN1CCC2(CC2)[C@H](O)C1)N1CCN(c2cccc(C(F)(F)F)c2)CCC1=O (stereo partly drawn) [Example 15, (R,S)-4-((S)-4-Hydroxy-6-aza-spiro[2.5]oct-6-yl)-2-[7-oxo-4-(3-trifluoromethyl-phenyl)-[1,4]diazepan-1-yl]-butyric acid methyl ester]",60 nM
15,"CC[C@@H]1C(=O)N(CCCN2CCC3(CC3)[C@H](O)C2)CCN1c1ccc(Cl)c(Cl)c1 [Example 88, (R)-4-(3,4-dichloro-phenyl)-3-ethyl-1-[3-((S)-4-hydroxy-6-aza-spiro[2.5]oct-6-yl)-propyl]-piperazin-2-one]",325 nM
16,"C[C@H]1C(=O)N(CCCN2CCC3(CC3)[C@H](O)C2)CCN1c1ccc(F)c(C(F)(F)F)c1 [Example 78, (S)-4-(4-Fluoro-3-trifluoromethyl-phenyl)-1-[3-((S)-4-hydroxy-6-aza-spiro[2.5]oct-6-yl)-propyl]-3-methyl-piperazin-2-one]",13 nM
17,"C[C@H]1C(=O)N(CCCN2CCCCC2)CCN1c1ccc(Cl)c(Cl)c1 [Example 72, (S)-4-(3,4-Dichloro-phenyl)-3-methyl-1-(3-piperidin-1-yl-propyl)-piperazin-2-one]",306 nM
18,"O=C1CCN(c2cccc(C(F)(F)F)c2)CCN1[C@H](CO)CCN1CCC2(CC2)[C@H](O)C1 [Example 6, 4-[(S)-3-((S)-4-Hydroxy-6-aza-spiro[2.5]oct-6-yl)-1-hydroxymethyl-propyl]-1-(3-trifluoromethyl-phenyl)-[1,4]diazepan-5-one]",10 nM
19,"CN(CCO)C(=O)[C@H](CCN1CCC2(CC2)[C@H](O)C1)N1CCN(c2ccc(Cl)c(Cl)c2)CCC1=O [Example 61, (S)-2-[4-(3,4-Dichloro-phenyl)-7-oxo-[1,4]diazepan-1-yl]-4-((S)-4-hydroxy-6-aza-spiro[2.5]oct-6-yl)-N-(2-hydroxy-ethyl)-N-methyl-butyramide]",76 nM
20,"C[C@H]1C(=O)N(C[C@@H](O)CCN2CCC3(CC3)[C@H](O)C2)CCN1c1ccc(Cl)c(Cl)c1 [Example 105, (S)-4-(3,4-Dichloro-phenyl)-1-[(S)-2-hydroxy-4-((S)-4-hydroxy-6-aza-spiro[2.5]oct-6-yl)-butyl]-3-methyl-piperazin-2-one]",27 nM
21,"COC(=O)[C@H](CCN1CCC2(CC2)[C@H](O)C1)N1CCN(c2ccc(Cl)c(Cl)c2)CCC1=O [Example 1, (S)-2-[4-(3,4-Dichloro-phenyl)-7-oxo-[1,4]diazepan-1-yl]-4-((S)-4-hydroxy-6-aza-spiro[2.5]oct-6-yl)-butyric acid methyl ester]",40 nM
22,"C[C@H]1C[C@H](O)CN(CCC(C(=O)N(C)C)N2CCN(c3cccc(C(F)(F)F)c3)CCC2=O)C1 (stereo partly drawn) [Example 18, (R,S)-4-((3S,5S)-3-Hydroxy-5-methyl-piperidin-1-yl)-N,N-dimethyl-2-[7-oxo-4-(3-trifluoromethyl-phenyl)-[1,4]diazepan-1-yl]-butyramide]",650 nM
23,"C[C@@H]1C(=O)N(CCCN2CCC3(CC3)[C@H](O)C2)CCN1c1ccc(C(F)(F)F)c(F)c1 [Example 103, (R)-4-(3-fluoro-4-trifluoromethyl-phenyl)-1-[3-((S)-4-hydroxy-6-aza-spiro[2.5]oct-6-yl)-propyl]-3-methyl-piperazin-2-one]",92 nM
24,"C[C@@H]1C(=O)N(C[C@H](O)CN2CCC3(CC3)[C@H](O)C2)CCN1c1ccc(Cl)c(Cl)c1 [Example 100, (R)-4-(3,4-Dichloro-phenyl)-1-[(R)-2-hydroxy-3-((S)-4-hydroxy-6-aza-spiro[2.5]oct-6-yl)-propyl]-3-methyl-piperazin-2-one]",334 nM
25,"COC(=O)[C@H](CCN1CCC2(CC2)[C@H](O)C1)N1C[C@H](C)N(c2ccc(Cl)c(Cl)c2)CCC1=O [Example 66, (S)-2-[(S)-4-(3,4-dichloro-phenyl)-3-methyl-7-oxo-[1,4]diazepan-1-yl]-4-((S)-4-hydroxy-6-aza-spiro[2.5]oct-6-yl)-butyric acid methyl ester]",546 nM
